Like-named read-outs stand apart in the source and are kept apart here.
Columns and labels:
[1] = Drug interaction study: pharmacokinetics of firmonertinib and AST-5902 in rats with or without nirmatrelvir and ritonavir (paxlovid); type: in vivo, Sprague-Dawley (SD) rats; settings: for AUC(0-inf) / AUC(0-t) / Cmax / Tmax / half-life / CL/F / MRT last / MRT inf / Vd/F: male, Sprague-Dawley, rat, plasma, po, 7.2 mg/kg, rat plasma; for CL/F: read-out: CLz/F (converted); for MRT last: read-out: MRT(0-t); for MRT inf: read-out: MRT(0-∞); for Vd/F: read-out: Vz/F; for Difference in main pharmacokinetic data between single-dose and long-term nirmatrelvir and ritonavir groups: P > 0.05
Method: The experimental animals for pharmacokinetics were eighteen male Sprague-Dawley (SD) rats (6–8 weeks old), weighing 180–220 g, purchased from Beijing Vital River Laboratory Animal Technology Co., Ltd. All animal-related experimental operations and care were performed in accordance with the Guide for the Care and Use of Laboratory Animals and were approved by the Animal Research Ethics Committee of Wenzhou Medical University (wydw2022-0184). All SD rats were kept in an SPF animal laboratory and were provided with adequate feed and water until all rats reached the required body weight for the experiment. […] Eighteen SD rats were randomly and equally divided into three groups of six rats each. Group C rats (long-term administration group) were given 55 mg/kg nirmatrelvir and 20 mg/kg ritonavir by gavage every 12 h for 5 days. Groups B (single dose administration group) and A (control group) were also given the same amount of 0.5% CMC-Na every 12 h for 5 days. Prior to the pharmacokinetic experiments, all rats were fasted for 12 h, but drinking water was not prohibited. On the day of the experiment, 55 mg/kg nirmatrelvir and 20 mg/kg ritonavir were given once by gavage to rats in group B and group C. The same dose of 0.5% CMC-Na was given to group A rats. […] Blood was collected using heparin lithium-anticoagulant tubes and then centrifuged for 10 min at 13,000 rpm at 4°C. Subsequently, the upper plasma fraction was transferred to a clean centrifuge tube and placed in a −80°C refrigerator for storage until detection.
The pharmacokinetic parameters of three groups were analyzed by single factor analysis of variance using SPSS 28.0 software. A p value of less than 0.05 were considered significant difference between the two groups.

[2] = Stability in rat plasma under different storage conditions; type: in vitro ADME; settings: for Stability RE (%), 4°C / Stability RE (%), Room temperature / Stability RE (%), Three freeze-thaw / Stability RE (%), −80°C: rat plasma; for Stability RE (%), 4°C: 4°C (24 h); for Stability RE (%), Room temperature: room temperature (4 h); for Stability RE (%), −80°C: −80°C long-term storage; for Stability in rat plasma: short-term and long-term storage conditions
Method: The stability of the method was assessed through the determination of low, medium and high concentration rat plasma quality control samples under various storage conditions. […] The stability of the samples was determined by the precision of measurement results, and the samples were considered stable when the CV% and RE% were both below 15%.

[3] = set-up: method as in Boosman et al., 2022; settings: ref Boosman et al., 2022; cited from earlier work
[4] = set-up: method as in Heng et al., 2021; settings: itraconazole (CYP3A4 inhibitor); clinical study; ref Heng et al., 2021; cited from earlier work
[5] = set-up: method as in Zhu et al., 2021; settings: therapeutic doses of rifampicin (strong CYP3A4 inducer); clinical study; ref Zhu et al., 2021; cited from earlier work
CYP3A4 = tested on: CYP3A4; set-up: method as in Liu et al., 2020; settings: ref Liu et al., 2020, cited from earlier work
[6] = ref Nieminen et al., 2010; cited from earlier work
[7] = set-up: method as in earlier work; settings: patients after organ transplantation, ref Prikis and Cameron, 2022, Liu et al., 2023, Michael et al.; cited from earlier work
[8] = Group A control: single 7.2 mg/kg firmonertinib by gavage alone
[9] = Group B: single dose 55 mg/kg nirmatrelvir and 20 mg/kg ritonavir, then 7.2 mg/kg firmonertinib by gavage
[10] = Group C: 5 days twice a day 55 mg/kg nirmatrelvir and 20 mg/kg ritonavir, then 7.2 mg/kg firmonertinib by gavage
[11] = rats, long-term nirmatrelvir and ritonavir vs firmonertinib monotherapy group
[12] = rats, single dose nirmatrelvir and ritonavir vs firmonertinib monotherapy group
[13] = rats, long-term (5 days) nirmatrelvir and ritonavir vs firmonertinib monotherapy group

For `C=CC(=O)Nc1cc(Nc2nccc(-c3cn(C)c4ccccc34)n2)c(OCC(F)(F)F)nc1N(C)CCNC` [AST-5902], the AUC(0-inf) [1, 8] was 405 ± 60.4 ng·h/mL, the AUC(0-t) [1, 8] was 387 ± 58.2 ng·h/mL and the Cmax [1, 8] was 39 ± 2.46 ng/mL. The Tmax [1, 8] was 5.33 ± 1.03 h, the half-life [1, 8] was 4.94 ± 0.98 h and the CL/F [1, 8] was 302 mL/min/kg. It also gave an MRT last [1, 8] of 8.37 ± 0.39 h, an MRT inf [1, 8] of 9.35 ± 0.4 h and a Vd/F [1, 8] of 129 ± 35.5 L/kg. It also gave an AUC(0-inf) [1, 9] of 185 ± 147 ng·h/mL, an AUC(0-t) [1, 9] of 122 ± 15 ng·h/mL and a Cmax [1, 9] of 9.79 ± 1.7 ng/mL. It also gave a Tmax [1, 9] of 8.33 ± 2.94 h, a half-life [1, 9] of 6.14 ± 4.31 h and a CL/F [1, 9] of 851 mL/min/kg. It also gave an MRT last [1, 9] of 8.94 ± 0.62 h, an MRT inf [1, 9] of 8.73 ± 2.41 h and a Vd/F [1, 9] of 362 ± 62.9 L/kg. It also gave an AUC(0-inf) [1, 10] of 125 ± 13.2 ng·h/mL, an AUC(0-t) [1, 10] of 122 ± 12.8 ng·h/mL and a Cmax [1, 10] of 10.2 ± 1.42 ng/mL. It also gave a Tmax [1, 10] of 8.67 ± 1.63 h, a half-life [1, 10] of 3.65 ± 0.58 h and a CL/F [1, 10] of 969 mL/min/kg. It also gave an MRT last [1, 10] of 9.22 ± 0.19 h, an MRT inf [1, 10] of 9.7 ± 0.33 h and a Vd/F [1, 10] of 306 ± 56.7 L/kg. The “Difference in main pharmacokinetic data between single-dose and long-term nirmatrelvir and ritonavir groups” value ([1]; rats) was “no significant differences”, the “AUC(0-∞) of AST-5902 decreased by” value [1, 11] was 70% and the “CLz/F of AST-5902 increased by” value [1, 11] was 3.2 times. The “Cmax of AST-5902 decreased by” value [1, 11] was 74%, the “Tmax of AST-5902 increased by” value [1, 11] was 1.62 times and the “Vz/F of AST-5902 increased by” value [1, 11] was 2.36 times. The “AUC(0-∞) of AST-5902 decreased by” value [1, 12] was 55%, the “CLz/F of AST-5902 increased by” value [1, 12] was 2.81 times and the “Cmax of AST-5902 decreased by” value [1, 12] was 75%. The “Tmax of AST-5902 increased by” value [1, 12] was 1.56 times, the “Vz/F of AST-5902 increased by” value [1, 12] was 2.79 times and the “AUC(0-t) of AST-5902 decreased by” value ([1]; rats, single-dose and long-term nirmatrelvir and ritonavir groups vs firmonertinib monotherapy group) was 69%. The “Stability RE (%), 4°C” value ([2]; AST-5902 table, 0.2 ng/mL) was −1.94%, the “Stability RE (%), Room temperature” value ([2]; AST-5902 table, 0.2 ng/mL) was 4.37% and the “Stability RE (%), Three freeze-thaw” value ([2]; AST-5902 table, 0.2 ng/mL) was 1.93%. For the same compound, the “Stability RE (%), −80°C” value ([2]; AST-5902 table, 0.2 ng/mL) was 0.97%, the “Stability RE (%), 4°C” value ([2]; AST-5902 table, 5 ng/mL) was −1.36% and the “Stability RE (%), Room temperature” value ([2]; AST-5902 table, 5 ng/mL) was 1.25%. The “Stability RE (%), Three freeze-thaw” value ([2]; AST-5902 table, 5 ng/mL) was 5.50%, the “Stability RE (%), −80°C” value ([2]; AST-5902 table, 5 ng/mL) was 3.06% and the “Stability RE (%), 4°C” value ([2]; AST-5902 table, 40 ng/mL) was 0.00%. The “Stability RE (%), Room temperature” value ([2]; AST-5902 table, 40 ng/mL) was 0.31%, the “Stability RE (%), Three freeze-thaw” value ([2]; AST-5902 table, 40 ng/mL) was −0.91% and the “Stability RE (%), −80°C” value ([2]; AST-5902 table, 40 ng/mL) was −0.53%. The “Stability in rat plasma” value [2] was “remain stable”.
In the case of `C#Cc1cccc(Nc2ncnc3cc(OCCOC)c(OCCOC)cc23)c1` [erlotinib], the “Pharmacokinetic exposure of 75 mg erlotinib orally with ritonavir versus 150 mg erlotinib orally” value [3] is listed as “comparable”.
In the case of `C=CC(=O)Nc1cc(Nc2nccc(-c3cn(C)c4ccccc34)n2)c(OCC(F)(F)F)nc1N(C)CCN(C)C` [firmonertinib], the AUC(0-inf) [1, 8] is reported as 367 ± 89.7 ng·h/mL, the AUC(0-t) [1, 8] is reported as 270 ± 28.4 ng·h/mL and the Cmax [1, 8] is reported as 13.5 ± 4.43 ng/mL. The Tmax [1, 8] was 6.33 ± 1.97 h, the half-life [1, 8] was 39.7 ± 35.7 h and the CL/F [1, 8] was 341 mL/min/kg. For the same compound, the MRT last [1, 8] was 24.5 ± 2.43 h, the MRT inf [1, 8] was 61.8 ± 44.7 h and the Vd/F [1, 8] was 1010 L/kg. It also gave an AUC(0-inf) [1, 9] of 486 ± 103 ng·h/mL, an AUC(0-t) [1, 9] of 456 ± 125 ng·h/mL and a Cmax [1, 9] of 27 ± 9.75 ng/mL. The Tmax [1, 9] was 6 ± 2.19 h, the half-life [1, 9] was 16.2 ± 6.77 h and the CL/F [1, 9] was 256 mL/min/kg. The MRT last [1, 9] was 19.2 ± 2.34 h, the MRT inf [1, 9] was 28.4 ± 6.88 h and the Vd/F [1, 9] was 374 ± 209 L/kg. It also gave an AUC(0-inf) [1, 10] of 458 ± 46 ng·h/mL, an AUC(0-t) [1, 10] of 421 ± 21.4 ng·h/mL and a Cmax [1, 10] of 27.9 ± 4.22 ng/mL. The Tmax [1, 10] was 5 ± 1.1 h, the half-life [1, 10] was 17.9 ± 5.91 h and the CL/F [1, 10] was 264 mL/min/kg. The MRT last [1, 10] was 19.6 ± 2.48 h, the MRT inf [1, 10] was 30.3 ± 5.96 h and the Vd/F [1, 10] was 400 ± 95.8 L/kg. For the same compound, the “Difference in main pharmacokinetic data between single-dose and long-term nirmatrelvir and ritonavir groups” value ([1]; rats) was “no significant differences”, the “AUC(0-t) of firmonertinib increased by” value [1, 13] was 1.55 times and the “CLz/F of firmonertinib decreased by” value [1, 13] was 23%. For the same compound, the “Cmax of firmonertinib increased by” value [1, 13] was 2.05 times, the “MRT(0-t) of firmonertinib decreased by” value [1, 13] was 20% and the “MRT(0-∞) of firmonertinib decreased by” value [1, 13] was 51%. For the same compound, the “Vz/F of firmonertinib decreased by” value [1, 13] was 61%, the “t1/2 of firmonertinib decreased by” value [1, 13] was 55% and the “AUC(0-t) of firmonertinib increased by” value [1, 12] was 1.68 times. For the same compound, the “CLz/F of firmonertinib decreased by” value [1, 12] was 26%, the “Cmax of firmonertinib increased by” value [1, 12] was 1.99 times and the “MRT(0-t) of firmonertinib decreased by” value [1, 12] was 22%. For the same compound, the “MRT(0-∞) of firmonertinib decreased by” value [1, 12] was 55%, the “Vz/F of firmonertinib decreased by” value [1, 12] was 64% and the “t1/2 of firmonertinib decreased by” value [1, 12] was 60%. For the same compound, the “Stability RE (%), 4°C” value ([2]; 0.3 ng/mL) was −4.98%, the “Stability RE (%), Room temperature” value ([2]; 0.3 ng/mL) was 7.47% and the “Stability RE (%), 4°C” value ([2]; 40 ng/mL) was 2.22%. For the same compound, the “Stability RE (%), Room temperature” value ([2]; 40 ng/mL) was −0.57%, the “Stability RE (%), 4°C” value ([2]; 400 ng/mL) was −2.90% and the “Stability RE (%), Room temperature” value ([2]; 400 ng/mL) was 2.63%. For the same compound, the “Stability in rat plasma” value [2] was “remain stable”, the “Exposure of firmonertinib on co-administration with itraconazole” value [4] was “significantly increases” and the “Exposure of firmonertinib on co-administration with rifampicin” value [5] was “significantly reduced”. For the same compound, the Main metabolizing enzyme (CYP3A4; in vitro experiments, to N-demethylated metabolite AST-5902) was “metabolized mainly by CYP3A4” and the “Relation to CYP3A4” value (CYP3A4; previous studies) was “both a substrate and an inducer of CYP3A4”.
For `COc1ccc2c3c1O[C@H]1C(=O)CC[C@@]4(O)[C@@H](C2)N(C)CC[C@]314` [oxycodone], the “AUC of oxycodone when administered simultaneously with ritonavir” value [6] is listed as “triples”.
For `C=CC[C@@H]1/C=C(\C)C[C@H](C)C[C@H](OC)[C@H]2O[C@@](O)(C(=O)C(=O)N3CCCC[C@H]3C(=O)O[C@H](/C(C)=C/[C@@H]3CC[C@@H](O)[C@H](OC)C3)[C@H](C)[C@@H](O)CC1=O)[C@H](C)C[C@@H]2OC` [tacrolimus], the “Concentration of tacrolimus during Paxlovid treatment” value [7] is listed as “increase significantly”.
